What all share (experiment): DTP human tumour cell line panel, 48 h
The subject of assay [1] is CAKI-1 renal.
In assay [2] the test system is COLO 205 colon.
Assay [3] relates to K-562 leukemia.
In assay [4] the test system is HT29 colon.
The subject of assay [5] is MALME-3M melanoma.
The test system of assay [6] is A498 renal.
Assay [7] concerns M19-MEL melanoma.
Assay [8] relates to LXFL 529 NSCLC.
Assay [9] relates to DMS 273 small cell lung.
The test system of assay [10] is DMS 114 small cell lung.
In assay [11] the test system is DLD-1 colon.
Assay [12] has as its system SNB-78 CNS.
The test system of assay [13] is HOP-18 NSCLC.
Assay [14] deals with XF 498 CNS.
Assay [15] has as its system KM20L2 colon.
Assay [16] relates to RXF-631 renal.

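Cells were grown in 96-well plates and exposed to each compound for 48 hours at five concentrations; endpoints were interpolated linearly between bracketing concentrations, or set to the highest concentration if not reached. TGI: total growth inhibition.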 Bounds are passed on as bounds.

In general, TGI refers to the concentration giving total growth inhibition. Low values mean more potent growth arrest, high ones less potent growth arrest.

With `CN(C)CCNC(=O)Cn1cnc2cccc([N+](=O)[O-])c2c1=O`, the TGI in assay [1], in [2], in assay [3], in [4], in assay [5] and in assay [6] was greater than 100 µM in each case.
On to `CC1=NN(c2nc(N)nc(C/C(N)=N/O)n2)C(C)(C)C1`, for which the TGI in assay [1], in assay [2], in assay [3], in [4], in assay [5] and in assay [6] was greater than 100 µM in each case.
Take `CCN(CC)c1ccc(/C=C/C(=O)c2cc(C(C)(C)C)c(O)c(C(C)(C)C)c2)cc1`: the TGI in [1] is greater than 100 µM; in assay [2], 14.7 µM; in [3] it was greater than 100 µM; in assay [4], 9.52 µM; in assay [5], greater than 100 µM; in [6] it was greater than 100 µM.
`O=c1[nH]nc(-c2ccccc2)n1/N=C/c1ccccc1Cl`: the TGI in assay [1] was greater than 100 µM; in assay [2], greater than 100 µM; in [3], greater than 100 µM; in assay [4], greater than 100 µM; in [5], 86.4 µM; in assay [6], greater than 100 µM.
As for `COc1ccc(C2=C(N)c3ncccc3C2=O)cc1`, the TGI in assay [1], in assay [2], in assay [3], in assay [4], in assay [5] and in assay [6] was greater than 100 µM each time.
As for `CCCCCCCCCC(=O)OCC1OC(n2cc(F)c(=O)[nH]c2=O)C(NC(=O)OCc2ccccc2)C(OC(=O)CCCCCCCCC)C1O` (stereo not given), the TGI is greater than 100 µM in assay [7]; greater than 100 µM in assay [1]; greater than 100 µM in assay [2]; greater than 100 µM in assay [3]; 35 µM in assay [4]; greater than 100 µM in assay [8]. Moreover, the TGI is greater than 100 µM in assay [9], 90.6 µM in assay [5], 49.1 µM in assay [10] and greater than 100 µM in [6].
As to `C#CCN(N=O)C(=O)NCCCCC(NC(C)=O)C(=O)NCc1ccccc1` (stereo not given), the total growth inhibition concentration (TGI) in assay [11], in assay [7], in assay [1], in assay [2], in assay [12] and in [13] was greater than 100 µM each time. Moreover, the TGI in [14], in assay [3], in assay [4], in [8], in [5] and in assay [10] was greater than 100 µM throughout. The TGI in [6] and in assay [15] was greater than 100 µM throughout.
Regarding `O/N=C1/CC2(N3CCOCC3)C3CC/C(=N\O)C2CC1(Cc1ccccc1)C3` (stereo not given), the TGI in assay [1], in [2], in assay [3], in assay [4], in assay [5] and in assay [6] was greater than 100 µM each time.
On to `CCN(CC)C1C(=O)NC1C#Cc1ccccc1` (stereo not given), for which the TGI in assay [1], in assay [2], in assay [3], in [4], in assay [5] and in assay [6] was greater than 100 µM in each case.
Regarding `CCc1cc(CCC(=O)Nc2ccccc2[N+](=O)[O-])[nH]c(=S)n1`, the TGI in assay [11], in assay [7], in assay [2], in [12], in assay [16] and in assay [13] was greater than 100 µM in each case. Besides, the TGI in assay [3], in [4], in assay [8], in [10] and in assay [15] was greater than 100 µM throughout.
Take `CCCCCCCCCCCCCCCCCCNc1nc(=O)n(C2CC(O)C(COP(=O)(O)OCC3OC(n4ccc(N)nc4=O)C(O)C3O)O2)cc1F` (stereo not given): the TGI is greater than 100 µM in [1]; greater than 100 µM in [2]; greater than 100 µM in assay [3]; 29.2 µM in [4]; greater than 100 µM in [5]; greater than 100 µM in [6].
For the compound `Cc1ccc(C(=O)/C=C/c2cccc([N+](=O)[O-])c2)cc1`, the TGI in assay [11] is greater than 85.8 µM; in assay [7], greater than 62.3 µM; in assay [1], greater than 100 µM; in assay [2], greater than 55.9 µM; in assay [12] it was greater than 100 µM; in [16] it was greater than 100 µM. In addition, the TGI in assay [13] is greater than 100 µM; in [3], 66.5 µM; in assay [4], greater than 66.1 µM; in [8] it was greater than 100 µM; in [9] it was greater than 100 µM; in [5] it was greater than 100 µM. In addition, the TGI in assay [10] is greater than 80.9 µM; in [6] it was greater than 100 µM; in assay [15] it was greater than 100 µM.
As for `Cc1ccnc2[nH]c(-c3ccc(F)cc3)cc(=O)c12`, the TGI in assay [1] is greater than 100 µM; in assay [2], greater than 76.8 µM; in [3], greater than 100 µM; in assay [4] it was greater than 100 µM; in [5], greater than 100 µM; in assay [6], 97.9 µM.
Consider `C[N+](C)(C)CC(=O)N/N=C(\C(=O)NC1=C(Cl)C(=O)c2ccccc2C1=O)C(C#N)c1nc(-c2ccc([N+](=O)[O-])cc2)cs1` (stereo not given), for which the TGI in assay [11] worked out at 29.5 µM; in assay [7], 2.2 µM; in [1], 48.6 µM; in assay [2], 35 µM; in assay [12], 48.2 µM; in [13] it was 18 µM. The TGI amounted to 21.1 µM in assay [14]; 61.1 µM in assay [3]; 33.6 µM in assay [4]; 21.4 µM in assay [8]; 33.7 µM in [9]; 3.97 µM in assay [5]. The TGI in assay [10] is 9.62 µM; in assay [6], 33.3 µM; in assay [15] it was 42.5 µM.
For the compound `CN(C)c1nncc2n[nH]nc12`, the TGI in assay [1], in [2], in [3], in assay [4], in assay [5] and in [6] was greater than 100 µM throughout.
